In ChEMBL document CHEMBL1130935, “Synthesis of a paclitaxel isomer: C-2-acetoxy-C-4-benzoate paclitaxel” (Bioorg Med Chem Lett, 1998):
Active and inactive are the calls of the source. The calls are words filed in the database; no cut-off is given here.

Biological target: Tubulin alpha chain (Sus scrofa) (UniProt P02550)
Test: Compound was tested for inhibitory activity against tubulin by tubulin polymerization assay; Inactive
Format: functional

Sequence of Tubulin alpha chain (Sus scrofa) (P02550 whole entry, looked up): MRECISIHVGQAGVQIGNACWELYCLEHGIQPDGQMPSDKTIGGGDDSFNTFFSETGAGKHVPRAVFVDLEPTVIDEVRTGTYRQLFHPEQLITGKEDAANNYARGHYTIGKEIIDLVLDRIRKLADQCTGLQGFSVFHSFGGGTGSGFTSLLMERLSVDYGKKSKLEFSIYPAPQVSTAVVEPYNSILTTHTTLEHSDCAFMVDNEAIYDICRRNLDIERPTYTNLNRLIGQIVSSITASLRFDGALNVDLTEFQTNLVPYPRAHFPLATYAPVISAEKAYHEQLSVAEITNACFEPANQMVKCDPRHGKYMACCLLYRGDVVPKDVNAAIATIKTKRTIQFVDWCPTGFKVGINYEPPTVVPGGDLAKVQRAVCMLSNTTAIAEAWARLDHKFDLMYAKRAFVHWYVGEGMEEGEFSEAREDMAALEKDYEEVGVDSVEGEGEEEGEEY

CC(=O)O[C@H]1C(=O)[C@]2(C)[C@@H](O)CC3OC[C@@]3(OC(=O)c3ccccc3)[C@H]2[C@H](OC(C)=O)[C@]2(O)C[C@H](OC(=O)[C@H](O)[C@@H](NC(=O)c3ccccc3)c3ccccc3)C(C)=C1C2(C)C (stereo partly specified)
Activity: inactive
